pIC50: −log10 of the molar value. “And” between values parts separate entries of the source, which are not always exact repeats. Equal entries are not always repeated.
Test system: 227483-062-R1-J1-PDC complex spheroids with HUVEC/MSC, viability
Assay: Anticancer human tumor 227483-062-R1-J1-PDC patient-derived pancreatic carcinoma cell line growth inhibition [CLK]
Details: for viability, T/C: stronger effect = lower value
Text: A high-throughput screen of multi-cell type tumor spheroids was designed to identify active combinations of […] and targeted small molecules. Complex spheroids include a stromal component modeled by human endothelial cells (HUVEC) and fibroblasts modeled by human mesenchymal stem cells (MSCs). The concentration ranges selected for each drug and investigational agent were based upon clinically achievable concentrations if the clinical Cmax of the agent was known.
Compounds. The drugs and investigational agents: cirtuvivint (SM08502; NSC835563), CC-671 (NSC850746), vemurafenib (NSC761431), tapotoclax (NSC804041), sotorasib (NSC818433), adagrasib (NSC831453), MRTX-1133 (NSC836407), BAY2416964 (NSC825713), copanlisib (NSC816437), inavolisib (NSC800729), abemaciclib (NSC768073), osimertinib (NSC779217), entinostat (NSC756642), eltanexor (KPT-8602, NSC794443), venetoclax (NSC766270), ceralasertib (NSC777638), bortezomib (NSC756655), olaparib (NSC753686), talazoparib (NSC767125), alisertib (NSC759677), peposertib (NSC802822), gemcitabine (NSC613327), 5-fluorouracil (NSC19893), SN-38 (NSC673596), oxaliplatin (NSC266046), paclitaxel (NSC125973), and doxorubicin (NSC123127), were obtained from the National Cancer Institute (NCI) Developmental Therapeutics Program Chemical Repository. The FDA-approved anticancer drug set is available from the Developmental Therapeutics Program at https://dtp.cancer.gov/organization/dscb/obtaining/available plates.htm. […] The stock solutions were prepared in dimethyl sulfoxide (DMSO, Sigma-Aldrich, St. Louis, MO, cat. D2650), except for the platinum complexes which were prepared in saline (Quality Biological, Gaithersburg, MD, cat. 114-055-101), at 800-fold the tested concentration and stored at -70 degrees C prior to their use. All drugs and investigational agents were tested over a range starting from a high concentration at or near the clinical Cmax and decreasing in half-log increments. If the clinical Cmax for an agent had not been determined, the highest concentration tested was 10 microM.
Cell Culture. All cells were maintained in an incubator at 37 degrees C and 5% CO2 with 95% humidity. The PDC lines were cultured according to standard operating procedures established by the NCI PDMR. Briefly, all PDCs were thawed and cultured in Matrigel-coated flasks prepared with a working solution of 1X Ham's F-12 nutrient mix, without supplementation (Invitrogen, Waltham, MA, cat. 11765054), 100 U/mL penicillin-streptomycin (Invitrogen, cat. 15140122), and 2.5% Matrigel (Corning Inc., Corning, NY, cat. 354248) for the first three passages. The 947758-054-R-J2-PDC line was cultured in 6B/Colon 1A media, which includes advanced DMEM/F-12 (Thermo Fisher Scientific, cat. 12634028), 10 mM HEPES (Thermo Fisher Scientific, cat. 15630080), 1X GlutaMAX supplement (Thermo Fisher Scientific, cat. 35050061), 0.1 mg/mL primocin (InvivoGen, cat. ant-pm-2), 10% defined fetal bovine serum, heat inactivated (HyClone Laboratories Inc., cat. SH30070.03HI), 1.25 mM N-Acetyl-L-cysteine (Sigma-Aldrich, cat. A9165), 10 mM nicotinamide (Sigma-Aldrich, cat. N0636), 1X B-27 supplement (Thermo Fisher Scientific, cat. 17504044), 1X N-2 supplement (Thermo Fisher Scientific, cat. 17502048), and 10 microM Y-27632 dihydrochloride (Tocris Bioscience, cat. 1254). The 876862-298-R-J1-PDC was cultured in 6E media, which includes all 6B/Colon 1A media components plus 50% L-WRN conditioned media (ATCC, cat. CRL-3276), 50 ng/mL recombinant human EGF recombinant protein (hEGF; Thermo Fisher Scientific, cat. PHG0311), 10 ng/mL recombinant human fibroblast growth factor 10 (hGFG-10; PeproTech, cat. 100-26), 1 ng/mL recombinant human fibroblast growth factor 2 (hFGF-2; PeproTech, cat. 100-18B), and 1 µM prostaglandin E2 (PGE2; Tocris, cat. 2296). The 227483-062-R1-J1-PDC line was cultured in Panc media, containing all 6E components except hFGF-2, with the addition of 500 nM SB-431542 (Selleckchem, cat. S1067) and 10 nM gastrin (Tocris, cat. 3006). […]

[1] = curve of first compound, second compound 0.0316 µM
[2] = curve of first compound, second compound 0.1 µM
[3] = curve of first compound, second compound 0.316 µM
[4] = curve of first compound, second compound 1 µM
[5] = curve of first compound, second compound 3.16 µM
[6] = curve of first compound, second compound 10 µM
[7] = second compound 0.0316 µM, first compound 0.00316 µM
[8] = second compound 0.0316 µM, first compound 0.01 µM
[9] = second compound 0.0316 µM, first compound 0.0316 µM
[10] = second compound 0.0316 µM, first compound 0.1 µM
[11] = second compound 0.0316 µM, first compound 0.316 µM
[12] = second compound 0.0316 µM, first compound 1 µM
[13] = second compound 0.1 µM, first compound 0.00316 µM
[14] = second compound 0.1 µM, first compound 0.01 µM
[15] = second compound 0.1 µM, first compound 0.0316 µM
[16] = second compound 0.1 µM, first compound 0.1 µM
[17] = second compound 0.1 µM, first compound 0.316 µM
[18] = second compound 0.1 µM, first compound 1 µM
[19] = second compound 0.316 µM, first compound 0.00316 µM
[20] = second compound 0.316 µM, first compound 0.01 µM
[21] = second compound 0.316 µM, first compound 0.0316 µM
[22] = second compound 0.316 µM, first compound 0.1 µM
[23] = second compound 0.316 µM, first compound 0.316 µM
[24] = second compound 0.316 µM, first compound 1 µM
[25] = second compound 1 µM, first compound 0.00316 µM
[26] = second compound 1 µM, first compound 0.01 µM
[27] = second compound 1 µM, first compound 0.0316 µM
[28] = second compound 1 µM, first compound 0.1 µM
[29] = second compound 1 µM, first compound 0.316 µM
[30] = second compound 1 µM, first compound 1 µM
[31] = second compound 3.16 µM, first compound 0.00316 µM
[32] = second compound 3.16 µM, first compound 0.01 µM
[33] = second compound 3.16 µM, first compound 0.0316 µM
[34] = second compound 3.16 µM, first compound 0.1 µM
[35] = second compound 3.16 µM, first compound 0.316 µM
[36] = second compound 3.16 µM, first compound 1 µM
[37] = second compound 10 µM, first compound 0.00316 µM
[38] = second compound 10 µM, first compound 0.01 µM
[39] = second compound 10 µM, first compound 0.0316 µM
[40] = second compound 10 µM, first compound 0.1 µM
[41] = second compound 10 µM, first compound 0.316 µM
[42] = second compound 10 µM, first compound 1 µM
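Also: spheroids exposed to compounds for seven days before readout.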
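For viability, T/C in this document: percent of DMSO vehicle control luminescence as 100% viability.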

## CCN1CCN(Cc2ccc(Nc3ncc(F)c(-c4cc(F)c5nc(C)n(C(C)C)c5c4)n3)nc2)CC1 + CN1CCN(c2cc(C(=O)Nc3cc4cc(-c5cnn(C)c5)ccc4cn3)ccn2)CC1
[1]
  pIC50: < 6.00
[2]
  pIC50: < 6.00
[3]
  pIC50: > 8.50
[4]
  pIC50: > 8.50
[5]
  pIC50: > 8.50
[6]
  pIC50: > 8.50
[7]
  viability, T/C: 97.5%
[8]
  viability, T/C: 93.4%
[9]
  viability, T/C: 101%
[10]
  viability, T/C: 93.4%
[11]
  viability, T/C: 87.6%
[12]
  viability, T/C: 72.4%
[13]
  viability, T/C: 65.8%
[14]
  viability, T/C: 64.7%
[15]
  viability, T/C: 64.5%
[16]
  viability, T/C: 72.9%
[17]
  viability, T/C: 72.6%
[18]
  viability, T/C: 52%
[19]
  viability, T/C: 6.05%
[20]
  viability, T/C: 8.49%
[21]
  viability, T/C: 8.54%
[22]
  viability, T/C: 9.66%
[23]
  viability, T/C: 13%
[24]
  viability, T/C: 6.42%
[25]
  viability, T/C: 1.57%
[26]
  viability, T/C: 2.07%
[27]
  viability, T/C: 2.83%
[28]
  viability, T/C: 2.75%
[29]
  viability, T/C: 4.4%
[30]
  viability, T/C: 5.61%
[31]
  viability, T/C: 3.72%
[32]
  viability, T/C: 6.23%
[33]
  viability, T/C: 5.4%
[34]
  viability, T/C: 5.18%
[35]
  viability, T/C: 4.88%
[36]
  viability, T/C: 8.09%
[37]
  viability, T/C: 3.9%
[38]
  viability, T/C: 2.79%
[39]
  viability, T/C: 4.22%
[40]
  viability, T/C: 4.63%
[41]
  viability, T/C: 2.76%
[42]
  viability, T/C: 2.39%

## O=C(c1cc(Cc2n[nH]c(=O)c3ccccc23)ccc1F)N1CCN(C(=O)C2CC2)CC1
Compound 0.0316 µM
  viability, T/C: 98% and 94.5%
Compound 0.1 µM
  viability, T/C: 100% and 97.8%
Compound 0.316 µM
  viability, T/C: 101% and 98.4%
Compound 1 µM
  viability, T/C: 107% and 99.2%
Compound 3.16 µM
  viability, T/C: 114% and 91.3%
Compound 10 µM
  viability, T/C: 91.4% and 100%
Curve of compound
  pIC50: < 5.00

## CCN1CCN(Cc2ccc(Nc3ncc(F)c(-c4cc(F)c5nc(C)n(C(C)C)c5c4)n3)nc2)CC1 + CNC(=O)c1ccc(Nc2nc(OC3CCCC3)c3c(-c4ccc5nc(C)oc5c4)c[nH]c3n2)c(OC)c1
[1]
  pIC50: < 6.00
[2]
  pIC50: < 6.00
[3]
  pIC50: < 6.00
[4]
  pIC50: < 6.00
[5]
  pIC50: 6.24
[6]
  pIC50: < 6.00
[7]
  viability, T/C: 103%
[8]
  viability, T/C: 89.3%
[9]
  viability, T/C: 86.9%
[10]
  viability, T/C: 82.1%
[11]
  viability, T/C: 79.3%
[12]
  viability, T/C: 81.8%
[13]
  viability, T/C: 103%
[14]
  viability, T/C: 115%
[15]
  viability, T/C: 95.3%
[16]
  viability, T/C: 103%
[17]
  viability, T/C: 76.9%
[18]
  viability, T/C: 79%
[19]
  viability, T/C: 86.3%
[20]
  viability, T/C: 94.2%
[21]
  viability, T/C: 88.8%
[22]
  viability, T/C: 74%
[23]
  viability, T/C: 70.7%
[24]
  viability, T/C: 67.9%
[25]
  viability, T/C: 75.4%
[26]
  viability, T/C: 72.4%
[27]
  viability, T/C: 64.4%
[28]
  viability, T/C: 75.1%
[29]
  viability, T/C: 60.6%
[30]
  viability, T/C: 53.1%
[31]
  viability, T/C: 65%
[32]
  viability, T/C: 64.7%
[33]
  viability, T/C: 61.7%
[34]
  viability, T/C: 57.4%
[35]
  viability, T/C: 60.8%
[36]
  viability, T/C: 41.4%
[37]
  viability, T/C: 41.9%
[38]
  viability, T/C: 56.5%
[39]
  viability, T/C: 60.4%
[40]
  viability, T/C: 74.6%
[41]
  viability, T/C: 65.2%
[42]
  viability, T/C: 37.1%

## CNC(=O)c1ccc(Nc2nc(OC3CCCC3)c3c(-c4ccc5nc(C)oc5c4)c[nH]c3n2)c(OC)c1
Compound 0.0316 µM
  viability, T/C: 96.1% [middle of 12 runs]
Compound 0.1 µM
  viability, T/C: 88.2% [middle of 12 runs]
Compound 0.316 µM
  viability, T/C: 85.1% [middle of 12 runs]
Compound 1 µM
  viability, T/C: 61.6% [middle of 11 runs]
Compound 3.16 µM
  viability, T/C: 45.4% [middle of 12 runs]
Compound 10 µM
  viability, T/C: 42.9% [middle of 12 runs]
